Source: patent publication US12686873B2, “Plants having increased tolerance to herbicides” (priority 2012, dated 2026)
Several values for one entry are separate records, joined by “and”; a condition that tells them apart may be missing. Equal entries are not always repeated.

Experiments:
Experiment in all cases: biochemical
[1] = molecular target: wild type and amino acid substituted PPO enzyme (Amaranthus tuberculatus, UniProt Q0NZW5)
[2] = molecular target: wild type and amino acid substituted PPO enzyme (Amaranthus tuberculatus, UniProt Q0NZW9, F204I/F420A/F457M/L400A); settings: IC50 (M)
[3] = molecular target: wild type and amino acid substituted PPO enzyme (Amaranthus tuberculatus, UniProt Q0NZW9, F204I/F420V); settings: IC50 (M)
[4] = molecular target: wild type and amino acid substituted PPO enzyme (Amaranthus tuberculatus, UniProt Q0NZW9, F204I/F420V/F457M); settings: IC50 (M)
[5] = molecular target: wild type and amino acid substituted PPO enzyme (Amaranthus tuberculatus, UniProt Q0NZW9, F204I/F420V/F457M/L400A/R128A); settings: IC50 (M)
[6] = molecular target: wild type and amino acid substituted PPO enzyme (Amaranthus tuberculatus, UniProt Q0NZW9, F204I/F420V/F457M/L400A/T208S); settings: IC50 (M)
[7] = molecular target: wild type and amino acid substituted PPO enzyme (Amaranthus tuberculatus, UniProt Q0NZW9, F204I/F420V/F457M/R128A); settings: IC50 (M)
[8] = molecular target: wild type and amino acid substituted PPO enzyme (Amaranthus tuberculatus, UniProt Q0NZW9, F204I/F420V/F457M/T208S); settings: IC50 (M)
[9] = molecular target: wild type and amino acid substituted PPO enzyme (Amaranthus tuberculatus, UniProt Q0NZW9, F204I/F420V/L400A); settings: IC50 (M)
[10] = molecular target: wild type and amino acid substituted PPO enzyme (Amaranthus tuberculatus, UniProt Q0NZW9, F204I/F420V/T208S); settings: IC50 (M)
[11] = molecular target: wild type and amino acid substituted PPO enzyme (Amaranthus tuberculatus, UniProt Q0NZW9, F204I/F457M); settings: IC50 (M)
wild type and amino acid substituted PPO enzyme (Amaranthus tuberculatus, UniProt Q0NZW9, F204I/F457M), sequence (Q0NZW9 1-534 F204I/F457M): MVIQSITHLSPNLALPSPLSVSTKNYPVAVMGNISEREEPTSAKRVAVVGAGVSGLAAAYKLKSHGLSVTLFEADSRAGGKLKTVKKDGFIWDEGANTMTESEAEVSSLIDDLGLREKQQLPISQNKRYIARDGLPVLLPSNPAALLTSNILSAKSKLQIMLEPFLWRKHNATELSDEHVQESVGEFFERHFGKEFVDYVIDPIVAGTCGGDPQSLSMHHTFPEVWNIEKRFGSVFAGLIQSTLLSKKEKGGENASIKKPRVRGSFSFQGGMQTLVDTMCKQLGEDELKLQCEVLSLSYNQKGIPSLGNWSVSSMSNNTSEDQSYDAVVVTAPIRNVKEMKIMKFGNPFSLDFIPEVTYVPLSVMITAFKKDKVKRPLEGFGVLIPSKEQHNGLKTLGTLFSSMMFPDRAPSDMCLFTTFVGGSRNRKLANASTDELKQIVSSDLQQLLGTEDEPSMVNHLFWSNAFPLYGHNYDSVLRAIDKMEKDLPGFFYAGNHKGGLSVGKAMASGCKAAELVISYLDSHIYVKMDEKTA

[12] = molecular target: wild type and amino acid substituted PPO enzyme (Amaranthus tuberculatus, UniProt Q0NZW9, F204I/F457M/L400A/T208S); settings: IC50 (M)
[13] = molecular target: wild type and amino acid substituted PPO enzyme (Amaranthus tuberculatus, UniProt Q0NZW9, F204I/F457M/T208S); settings: IC50 (M)
wild type and amino acid substituted PPO enzyme (Amaranthus tuberculatus, UniProt Q0NZW9, F204I/F457M/T208S), sequence (Q0NZW9 1-534 F204I/T208S/F457M): as the sequence (Q0NZW9 1-534 F204I/F457M) above, with T208S counted along it

[14] = molecular target: wild type and amino acid substituted PPO enzyme (Amaranthus tuberculatus, UniProt Q0NZW9, F204I/L397D/L400A/T208S); settings: IC50 (M)
[15] = molecular target: wild type and amino acid substituted PPO enzyme (Amaranthus tuberculatus, UniProt Q0NZW9, F204I/L397D/T208S); settings: IC50 (M)
[16] = molecular target: wild type and amino acid substituted PPO enzyme (Amaranthus tuberculatus, UniProt Q0NZW9, F204I/L400A); settings: IC50 (M)
[17] = molecular target: wild type and amino acid substituted PPO enzyme (Amaranthus tuberculatus, UniProt Q0NZW9, F204I/L400A/T208S); settings: IC50 (M)
[18] = molecular target: wild type and amino acid substituted PPO enzyme (Amaranthus tuberculatus, UniProt Q0NZW9, F204I/T208S); settings: IC50 (M)
wild type and amino acid substituted PPO enzyme (Amaranthus tuberculatus, UniProt Q0NZW9, F204I/T208S), sequence (Q0NZW9 1-534 F204I/T208S): as the sequence (Q0NZW9 1-534 F204I/F457M) above, with T208S, M457F counted along it

[19] = molecular target: wild type and amino acid substituted PPO enzyme (Amaranthus tuberculatus, UniProt Q0NZW9, F420M/L397A); settings: IC50 (M)
[20] = molecular target: wild type and amino acid substituted PPO enzyme (Amaranthus tuberculatus, UniProt Q0NZW9, F420M/L397C); settings: IC50 (M)
[21] = molecular target: wild type and amino acid substituted PPO enzyme (Amaranthus tuberculatus, UniProt Q0NZW9, F420M/L397D); settings: IC50 (M)
wild type and amino acid substituted PPO enzyme (Amaranthus tuberculatus, UniProt Q0NZW9, F420M/L397D), sequence (Q0NZW9 1-534 L397D/F420M): as the sequence (Q0NZW9 1-534 F204I/F457M) above, with I204F, L397D, F420M, M457F counted along it

[22] = molecular target: wild type and amino acid substituted PPO enzyme (Amaranthus tuberculatus, UniProt Q0NZW9, F420M/L397S); settings: IC50 (M)
[23] = molecular target: wild type and amino acid substituted PPO enzyme (Amaranthus tuberculatus, UniProt Q0NZW9, F420M/L397V); settings: IC50 (M)
[24] = molecular target: wild type and amino acid substituted PPO enzyme (Amaranthus tuberculatus, UniProt Q0NZW9, F420V/F457M); settings: IC50 (M)
[25] = molecular target: wild type and amino acid substituted PPO enzyme (Amaranthus tuberculatus, UniProt Q0NZW9, F420V/F457M/T208S); settings: IC50 (M)
[26] = molecular target: wild type and amino acid substituted PPO enzyme (Amaranthus tuberculatus, UniProt Q0NZW9, F420V/L397C); settings: IC50 (M)
[27] = molecular target: wild type and amino acid substituted PPO enzyme (Amaranthus tuberculatus, UniProt Q0NZW9, F420V/L397Q); settings: IC50 (M)
wild type and amino acid substituted PPO enzyme (Amaranthus tuberculatus, UniProt Q0NZW9, F420V/L397Q), sequence (Q0NZW9 1-534 L397Q/F420V): as the sequence (Q0NZW9 1-534 F204I/F457M) above, with I204F, L397Q, F420V, M457F counted along it

[28] = molecular target: wild type and amino acid substituted PPO enzyme (Amaranthus tuberculatus, UniProt Q0NZW9, F420V/L397S); settings: IC50 (M)
[29] = molecular target: wild type and amino acid substituted PPO enzyme (Amaranthus tuberculatus, UniProt Q0NZW9, F420V/L397T); settings: IC50 (M)
[30] = molecular target: wild type and amino acid substituted PPO enzyme (Amaranthus tuberculatus, UniProt Q0NZW9, F420V/L397V); settings: IC50 (M)
[31] = molecular target: wild type and amino acid substituted PPO enzyme (Amaranthus tuberculatus, UniProt Q0NZW9, F420V/R128A/T208S); settings: IC50 (M)
[32] = molecular target: wild type and amino acid substituted PPO enzyme (Amaranthus tuberculatus, UniProt Q0NZW9, F420V/T208S); settings: IC50 (M)
wild type and amino acid substituted PPO enzyme (Amaranthus tuberculatus, UniProt Q0NZW9, F420V/T208S), sequence (Q0NZW9 1-534 T208S/F420V): as the sequence (Q0NZW9 1-534 F204I/F457M) above, with I204F, T208S, F420V, M457F counted along it

[33] = molecular target: wild type and amino acid substituted PPO enzyme (Amaranthus tuberculatus, UniProt Q0NZW9, F457M/L400A); settings: IC50 (M)
[34] = molecular target: wild type and amino acid substituted PPO enzyme (Amaranthus tuberculatus, UniProt Q0NZW9, F457M/L400A/T208S); settings: IC50 (M)
[35] = molecular target: wild type and amino acid substituted PPO enzyme (Amaranthus tuberculatus, UniProt Q0NZW9, F457M/T208S); settings: IC50 (M)
wild type and amino acid substituted PPO enzyme (Amaranthus tuberculatus, UniProt Q0NZW9, F457M/T208S), sequence (Q0NZW9 1-534 T208S/F457M): as the sequence (Q0NZW9 1-534 F204I/F457M) above, with I204F, T208S counted along it

[36] = molecular target: wild type and amino acid substituted PPO enzyme (Amaranthus tuberculatus, UniProt Q0NZW9, L397D/R128A); settings: IC50 (M)
wild type and amino acid substituted PPO enzyme (Amaranthus tuberculatus, UniProt Q0NZW9, L397D/R128A), sequence (Q0NZW9 1-534 R128A/L397D): as the sequence (Q0NZW9 1-534 F204I/F457M) above, with R128A, I204F, L397D, M457F counted along it

[37] = molecular target: wild type and amino acid substituted PPO enzyme (Amaranthus tuberculatus, UniProt Q0NZW9, L397D/T208S); settings: IC50 (M)

wild type and amino acid substituted PPO enzyme (Amaranthus tuberculatus, UniProt Q0NZW5), sequence (Q0NZW5 entry or part of it): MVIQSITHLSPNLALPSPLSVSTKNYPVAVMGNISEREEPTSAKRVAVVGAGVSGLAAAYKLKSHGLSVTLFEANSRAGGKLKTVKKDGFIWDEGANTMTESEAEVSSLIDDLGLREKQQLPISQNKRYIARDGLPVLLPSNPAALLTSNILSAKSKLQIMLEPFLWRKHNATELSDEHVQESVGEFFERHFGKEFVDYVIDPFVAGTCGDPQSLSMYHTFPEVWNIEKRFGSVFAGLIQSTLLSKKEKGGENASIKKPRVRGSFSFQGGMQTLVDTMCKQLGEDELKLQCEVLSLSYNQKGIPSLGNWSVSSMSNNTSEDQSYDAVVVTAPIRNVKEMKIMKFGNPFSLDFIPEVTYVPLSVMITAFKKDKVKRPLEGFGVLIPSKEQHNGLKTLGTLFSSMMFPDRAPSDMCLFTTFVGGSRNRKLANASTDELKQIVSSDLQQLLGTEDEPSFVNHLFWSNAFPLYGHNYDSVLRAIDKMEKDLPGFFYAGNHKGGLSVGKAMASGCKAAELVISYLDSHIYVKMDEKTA

Work on `C#CCN1C(=O)C(F)(F)Oc2cc(F)c(-n3c(=O)n(C)c(=S)n(C)c3=O)cc21` yielded an IC50 [1] of 2.12 nM, an IC50 [2] of 3.69e-08 M and an IC50 [3] of 4.69e-09 M. For the same compound, the IC50 [4] was 2.1e-09 M, the IC50 [5] was 4.05e-07 M and the IC50 [6] was 9.24e-08 M. For the same compound, the IC50 [7] was 4.63e-08 M, the IC50 [8] was 4.72e-09 M and the IC50 [9] was 8.23e-08 M. It also gave an IC50 [10] of 3.87e-09 M, an IC50 [11] of 7.52e-11 M and an IC50 [12] of 2.88e-11 M. For the same compound, the IC50 [13] was 4.21e-11 M and 1.7e-10 M, the IC50 [14] was 2.38e-09 M and the IC50 [15] was 5.52e-11 M. It also gave an IC50 [16] of 4.57e-11 M, an IC50 [17] of 2.64e-11 M and an IC50 [18] of 1.29e-10 M. The IC50 [19] was 4.53e-09 M, the IC50 [20] was 1.79e-09 M and the IC50 [21] was 2.95e-08 M. It also gave an IC50 [22] of 3.33e-09 M, an IC50 [23] of 1.05e-09 M and an IC50 [24] of 1.02e-09 M. The IC50 [25] was 3.41e-09 M, the IC50 [26] was 5.54e-08 M and the IC50 [27] was 1.01e-07 M. The IC50 [28] was 4.26e-08 M, the IC50 [29] was 1.31e-08 M and the IC50 [30] was 1.21e-08 M. The IC50 [31] was 1.25e-08 M, the IC50 [32] was 2.34e-09 M and the IC50 [33] was 1.35e-11 M. For the same compound, the IC50 [34] was 9.68e-12 M, the IC50 [35] was 1.95e-10 M and the IC50 [36] was 5.9e-09 M. For the same compound, the IC50 [37] was 1.25e-10 M.
`CC(C)N(C)S(=O)(=O)NC(=O)c1cc(-n2c(=O)cc(C(F)(F)F)n(C)c2=O)c(F)cc1Cl` [saflufenacil] showed an IC50 [1] of 1600 nM, an IC50 [11] of 1.89e-11 M and an IC50 [13] of 5.11e-11 M. The IC50 [18] was 5.89e-11 M, the IC50 [21] was over 1e-05 M and the IC50 [27] was over 1e-05 M. For the same compound, the IC50 [31] was over 1e-05 M, the IC50 [32] was 8.48e-07 M and the IC50 [35] was 1.02e-10 M. The IC50 [36] was at least 1e-05 M and the IC50 [37] was 4.08e-07 M.
